Measurements: patent US11160887B2, “Compositions for use in diagnosing and treating melanoma, including metastatic melanoma and methods related to same” (UNM RAINFOREST INNOVATIONS, priority 2008, dated 2021)
Like-named read-outs stand apart in the source and are kept apart here. Residues, ends and D or L forms follow the SMILES beside them.

Key:
[1] = Urinary metabolites by HPLC in B16/F1 melanoma-bearing C57 mice; format: in vivo, mouse; settings: urine, 2 h post-injection
Method: Urinary Metabolites of ^111In-DOTA-CycMSH and ^111In-DOTA-GlyGlu-CycMSH: One hundred microliter of HPLC purified ^111In-DOTA-CycMSH (0.74-1.11 MBq, 0.82-1.12 ng) or ^111In-DOTA-GlyGlu-CycMSH (0.74-1.11 MBq, 0.90-1.35 ng) was injected into each B16/F1 murine melanoma-bearing C57 mouse through the tail vein. At 2 h after dose administration, mice were sacrificed and the urine was collected. The radioactive metabolites in the urine were analyzed by injecting aliquots of urine into HPLC. A 20-minute gradient of 16-26% acetonitrile/20 mM HCl was used for the urine analysis.

[2] = Stability in mouse serum monitored by RP-HPLC; format: in vitro ADME; settings: 37° C., 24 h incubation
Method: Complexation of the Peptide with ^111In: ^111In-DOTA-CycMSH and ^111In-DOTA-GlyGlu-CycMSH were prepared using a 0.5 M NH4OAc-buffered solution at pH 5.4. Briefly, 50 μl of ^111InCl3 (18.5-37.0 MBq in 0.05 M HCl), 10 μl of 1 mg/ml DOTA-CycMSH or DOTA-GlyGlu-CycMSH aqueous solution and 400 μl of 0.5 M NH4OAc (pH 5.4) were added into a reaction vial and incubated at 75° C. for 45 min. After the incubation, 20 μl of 0.5% EDTA aqueous solution was added into the reaction vial to scavenge potential unbound ^111In. The radiolabeled complexes were purified to single species by Waters RP-HPLC (Milford, Mass.) on a Grace Vadyc C-18 reverse phase analytical column (Deerfield, Ill.) using a 20-minute gradient of 16-26% acetonitrile in 20 mM HCl aqueous solution with a flowrate of 1 ml/min. Purified peptide samples were purged with N2 gas for 20 minutes to remove the acetonitrile. The pH of final solution was adjusted to 7.4 with 0.1 N NaOH and normal saline for animal studies. The stability of ^111In-DOTA-CycMSH and ^111In-DOTA-GlyGlu-CycMSH was determined by incubation in mouse serum at 37° C. according to the published procedure (20) for various time periods, and monitored for degradation by RP-HPLC.

[3] = test system: B16/F1 murine melanoma-bearing C57 mice; experiment: Biodistribution in B16/F1 murine melanoma-bearing C57 mice; format: in vivo, mouse
Method: (§1) Biodistribution Studies: All the animal studies were conducted in compliance with Institutional Animal Care and Use Committee approval. The pharmacokinetics of ^111In-DOTA-CycMSH and ^111In-DOTA-GlyGlu-CycMSH were determined in B16/F1 murine melanoma-bearing C57 female mice (Harlan, Indianapolis, Ind.). C57 mice were inoculated subcutaneously with 1×10^6 B16/F1 murine melanoma cells in the right flank. After 10 days, when the weight of tumors reached approximately 0.2 g, 0.037 MBq of ^111In-DOTA-CycMSH or ^111In-DOTA-GlyGlu-CycMSH was injected into each mouse through the tail vein. Groups of 5 mice were sacrificed at 2, 4 and 24 h post-injection, and tumors and organs of interest were harvested, weighed and counted. Blood values were taken as 6.5% of the whole-body weight. The tumor uptake specificity of ^111In-DOTA-CycMSH and ^111In-DOTA-GlyGlu-CycMSH was determined by blocking tumor uptake with the co-injection of 10 μg (6.07 nmol) of unlabeled NDP-MSH, a linear α-MSH peptide analogue with picomolar affinity for the MC1 receptors present on murine melanoma cells. Statistical analysis was performed using the Student's t-test for unpaired data.

[4] = as above; format: in vivo, mouse; settings: female, C57, mouse, iv, 0.037 MBq, total radioactivity; for tissue uptake: all time points (2, 4, 24 h)
Method: as §1

[5] = target: T1, MC1 receptor (B16/F1 murine melanoma cells) (Mus musculus, UniProt Q01727); experiment: In vitro competitive binding assay in B16/F1 cells (125I-Tyr2-NDP-MSH displacement); settings: 25° C., 2 h
T1 construct: host or cells: B16/F1 murine melanoma cells
T1 sequence (Q01727 whole entry): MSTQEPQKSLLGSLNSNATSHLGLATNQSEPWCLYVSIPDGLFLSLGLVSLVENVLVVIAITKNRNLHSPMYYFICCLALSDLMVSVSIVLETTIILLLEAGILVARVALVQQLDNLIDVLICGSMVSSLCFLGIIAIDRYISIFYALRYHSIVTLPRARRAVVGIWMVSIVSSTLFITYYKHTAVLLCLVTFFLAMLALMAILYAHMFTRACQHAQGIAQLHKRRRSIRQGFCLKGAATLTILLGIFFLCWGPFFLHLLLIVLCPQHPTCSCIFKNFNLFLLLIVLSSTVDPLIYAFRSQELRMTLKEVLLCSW
Method: In vitro Competitive Binding Assay: The IC50 values of DOTA-CycMSH and DOTA-GlyGlu-CycMSH were determined by using methods described previously (8). B16/F1 cells were harvested and seeded into a 24-well cell culture plate (5×10^5/well) and incubated at 37° C. overnight. After being washed once with binding media (MEM with 25 mM HEPES, pH 7.4, 0.2% BSA, 0.3 mM 1,10-phenathroline), the cells were incubated at room temperature (25° C.) for 2 h with approximately 50,000 cpm of ^125I-Tyr^2-[Nle^4, D-Phe^7]-α-MSH {NDP-MSH} (GE HealthCare, Piscataway, N.J.) in presence of increasing concentrations of DOTA-CycMSH or DOTA-GlyGlu-CycMSH in 0.3 ml of binding media. The reaction media were aspirated after incubation. Cells were rinsed with 0.5 ml of ice-cold pH 7.4, 0.2% BSA/0.01 M PBS twice and lysed in 0.5 ml of 1 N NaOH for 5 minutes. The activities in cells were measured in a gamma counter. The IC50 values for the peptides were calculated by using the Grafit software (Erithacus Software Limited, UK).
In vitro Competitive Binding Assay: The IC50 values of DOTA-GluGlu-CycMSH and Ac-GluGlu-CycMSH[DOTA] were determined by using methods described previously (12). B16/F1 cells were harvested and seeded into a 24-well cell culture plate (5×10^5/well) and incubated at 37° C. overnight. After being washed once with binding media (MEM with 25 mM HEPES, pH 7.4, 0.2% BSA, 0.3 mM 1,10-phenathroline), the cells were incubated at 25° C. for 2 h with approximately 50,000 cpm of ^125I-(Tyr^2)-NDP-MSH in the presence of increasing concentrations (10^−13 to 10^−6 M) of DOTA-GluGlu-CycMSH or Ac-GluGlu-CycMSH[DOTA] in 0.3 ml of binding media. The reaction media were aspirated after incubation. Cells were rinsed with 0.5 ml of ice-cold pH 7.4; 0.2% BSA/0.01 M PBS twice and lysed in 0.5 ml of 1 N NaOH for 5 min. The activities associated with cells were measured in a Wallac 1480 automated gamma counter (PerkinElmer, N.J.). The IC50 values of the peptides were calculated by using Prism software (GraphPad Software, La Jolla, Calif.).

[6] = target: T2, MC1 receptor (B16/F10 murine melanoma cells) (Mus musculus, UniProt Q01727); experiment: In vitro competitive binding assay in B16/F10 cells (125I-(Tyr2)-NDP-MSH displacement); settings: 25° C., 2 h, read-out: IC50 (MC1 receptor binding affinity)
T2 construct: host or cells: B16/F10 murine melanoma cells
T2 sequence (Q01727 whole entry): as above
Method: In vitro Competitive Binding Assay: The IC50 value of DOTA-GlyGlu-CycMSH was determined in B16/F10 cells. The cells were harvested and seeded into a 24-well cell culture plate (5×10^5/well) and incubated at 37° C. overnight. After being washed once with binding media, the cells were incubated at 25° C. for 2 h with approximately 50,000 cpm of ^125I-(Tyr^2)-NDP-MSH in the presence of increasing concentrations of DOTA-GlyGlu-CycMSH (10^−12 to 10^−5 M) in 0.3 mL of binding media. The reaction media were aspirated after incubation. Cells were rinsed with 0.5 mL of ice-cold pH 7.4, 0.2% BSA/0.01 M PBS twice, and then lysed in 0.5 mL of 1 N NaOH for 5 min. The activities associated with the cells were measured in a gamma counter. The IC50 value was calculated by using Prism software.

[7] = test system: endocytosis in tubular cells; settings: rat model, literature (27); cited from earlier work

CCCC[C@@H]1NC(=O)[C@@H](NC(=O)CN2CCN(CC(=O)O)CCN(CC(=O)O)CCN(CC(=O)O)CC2)CCCCNC(=O)[C@H](CC(=O)O)NC(=O)[C@H](C(C)C)NC(=O)[C@@H]2CCCN2C(=O)[C@H](CCCNC(=N)N)NC(=O)CNC(=O)[C@H](Cc2c[nH]c3ccccc23)NC(=O)[C@H](CCCNC(=N)N)NC(=O)[C@@H](Cc2ccccc2)NC(=O)[C@H](Cc2c[nH]cn2)NC(=O)[C@H](CCC(=O)O)NC1=O [^111In-DOTA-CycMSH, metal not drawn] (HELM PEPTIDE1{[O=C(O)CN1CCN(CC(=O)O)CCN(CC(=O)[*:2])CCN(CC(=O)O)CC1].K.[Nle].E.H.[dF].R.W.G.R.P.V.D}$PEPTIDE1,PEPTIDE1,2:R3-13:R2$$$V2.0)
urinary metabolites by RP-HPLC [1]: transformed to two more polar metabolites
stability in mouse serum [2]: stable
tumor uptake with NDP co-injection as % of the tumor uptake without NDP co-injection ([3]; 10 μg (6.07 nmol) non-radiolabeled NDP co-injection, 2 h after dose administration): 3.0%
tumor uptake ([3]; 2 h post-injection, tail vein): 9.53±1.41 % ID/g
tissue uptake ([4]; bone, read-out: bone uptake): < 0.2 %ID/g
kidney uptake at 24 h ([4]; kidney, 24 h after dose administration): 16 ± 2.3 %ID/g
tissue uptake ([4]; normal organs except the kidneys, read-out: normal organ uptakes except for the kidneys): < 0.8 %ID/g
tissue uptake at 2 h ([4]; tumor, 2 h post-injection, tail vein): 9.53 ± 1.41 %ID/g
tissue uptake at 4 h ([4]; tumor, 4 h post-injection, tail vein): 7.54 ± 0.7 %ID/g
tissue uptake at 24 h ([4]; tumor, 24 h post-injection, tail vein): 2.22 ± 0.51 %ID/g
dose excreted ([4]; urine, by 2 h post-injection, read-out: injected radioactivity cleared through the urinary system): ~90%

CCCC[C@@H]1NC(=O)[C@@H](NC(=O)[C@H](CCC(=O)O)NC(=O)CNC(=O)CN2CCN(CC(=O)O)CCN(CC(=O)O)CCN(CC(=O)O)CC2)CCCCNC(=O)[C@H](CC(=O)O)NC(=O)[C@H](C(C)C)NC(=O)[C@@H]2CCCN2C(=O)[C@H](CCCNC(=N)N)NC(=O)CNC(=O)[C@H](Cc2c[nH]c3ccccc23)NC(=O)[C@H](CCCNC(=N)N)NC(=O)[C@@H](Cc2ccccc2)NC(=O)[C@H](Cc2c[nH]cn2)NC(=O)[C@H](CCC(=O)O)NC1=O [DOTA-GlyGlu-CycMSH, DOTA-Gly-Glu-c[Lys-Nle-Glu-His-DPhe-Arg-Trp-Gly-Arg-Pro-Val-Asp]] (HELM PEPTIDE1{[O=C(O)CN1CCN(CC(=O)O)CCN(CC(=O)[*:2])CCN(CC(=O)O)CC1].G.E.K.[Nle].E.H.[dF].R.W.G.R.P.V.D}$PEPTIDE1,PEPTIDE1,4:R3-15:R2$$$V2.0)
IC50 [5]: 0.9 nM
IC50 [6]: 2.43 nM

COc1cc2c(c(OC)c1OC)-c1ccc(OC)c(=O)cc1[C@@H](NC(C)=O)CC2 [colchicine]
decrease of the renal uptake of radiolabeled peptide [7]: up to 25%

CCCC[C@@H]1NC(=O)[C@@H](NC(=O)[C@H](CCC(=O)O)NC(=O)[C@H](CCC(=O)O)NC(=O)CN2CCN(CC(=O)O)CCN(CC(=O)O)CCN(CC(=O)O)CC2)CCCCNC(=O)[C@H](CC(=O)O)NC(=O)[C@H](C(C)C)NC(=O)[C@@H]2CCCN2C(=O)[C@H](CCCNC(=N)N)NC(=O)CNC(=O)[C@H](Cc2c[nH]c3ccccc23)NC(=O)[C@H](CCCNC(=N)N)NC(=O)[C@@H](Cc2ccccc2)NC(=O)[C@H](Cc2c[nH]cn2)NC(=O)[C@H](CCC(=O)O)NC1=O [DOTA-GluGlu-CycMSH, 1,4,7,10-tetraazacyclododecane-1,4,7,10-tetraacetic acid-Glu-Glu-c[Lys-Nle-Glu-His-DPhe-Arg-Trp-Gly-Arg-Pro-Val-Asp]] (HELM PEPTIDE1{[O=C(O)CN1CCN(CC(=O)O)CCN(CC(=O)[*:2])CCN(CC(=O)O)CC1].E.E.K.[Nle].E.H.[dF].R.W.G.R.P.V.D}$PEPTIDE1,PEPTIDE1,4:R3-15:R2$$$V2.0)
IC50 [5]: 6.73 nM

CCCC[C@@H]1NC(=O)[C@@H](NC(=O)CN2CCN(CC(=O)O)CCN(CC(=O)O)CCN(CC(=O)O)CC2)CCCCNC(=O)[C@H](CC(=O)O)NC(=O)[C@H](C(C)C)NC(=O)[C@@H]2CCCN2C(=O)[C@H](CCCNC(=N)N)NC(=O)CNC(=O)[C@H](Cc2c[nH]c3ccccc23)NC(=O)[C@H](CCCNC(=N)N)NC(=O)[C@@H](Cc2ccccc2)NC(=O)[C@H](Cc2c[nH]cn2)NC(=O)[C@H](CCC(=O)O)NC1=O [DOTA-CycMSH] (HELM PEPTIDE1{[O=C(O)CN1CCN(CC(=O)O)CCN(CC(=O)[*:2])CCN(CC(=O)O)CC1].K.[Nle].E.H.[dF].R.W.G.R.P.V.D}$PEPTIDE1,PEPTIDE1,2:R3-13:R2$$$V2.0)
IC50 [5]: 1.75 nM
